Experimental data reported in US9125913B2, “Bcl-2-selective apoptosis-inducing agents for the treatment of cancer and immune diseases” (AbbVie Inc., priority 2008, dated 2015).

Test system: GST-Bcl-2
Test: TR-FRET binding assay, Bcl-2
Conditions: TR-FRET Ki values
Procedure: Tb-anti-GST antibody was purchased from Invitrogen (Catalog No. PV4216).
Representative compounds were serially diluted in dimethyl sulfoxide (DMSO) starting at 50 μM (2× starting concentration; 10% DMSO) and 10 μL were transferred into a 384-well plate.
The samples were then mixed on a shaker for 1 minute and incubated for an additional 3 hours at room temperature. For each assay, the probe/antibody and protein/probe/antibody were included on each assay plate as negative and positive controls, respectively. Fluorescence was measured on the Envision (Perkin Elmer) using a 340/35 nm excitation filter and 520/525 (F-Bak peptide) and 495/510 nm (Tb-labeled anti-Histidine antibody) emission filters.
The inhibition constant (Ki) is the dissociation constant of an enzyme-inhibitor complex or a protein/small molecule complex, wherein the small molecule is inhibiting binding of one protein to another protein or peptide. […] Inhibition constants were determined using Wang's equation (Wang Z-X., An Exact Mathematical Expression For Describing Competitive Binding Of Two Different Ligands To A Protein Molecule. FEBS Lett. 1995, 360:111-4).

Row | Compound | Binding selectivity ratio (Bcl-XL Ki/Bcl-2 Ki)
1 | CC1(C)CCC(CN2CCN(c3ccc(C(=O)NS(=O)(=O)c4ccc(NC5CCN(C6CCOCC6)CC5)c([N+](=O)[O-])c4)c(Nc4cccnc4)c3)CC2)=C(c2ccc(Cl)cc2)C1 [EXAMPLE 397, 4-(4-{[2-(4-chlorophenyl)-4,4-dimethylcyclohex-1-en-1-yl]methyl}piperazin-1-yl)-N-({3-nitro-4-[(1-tetrahydro-2H-pyran-4-ylpiperidin-4-yl)amino]phenyl}sulfonyl)-2-(pyridin-3-ylamino)benzamide] | >28730.6285913286
2 | CC1(C)CCC(CN2CCN(c3ccc(C(=O)NS(=O)(=O)c4ccc(NCCOC(F)(F)F)c([N+](=O)[O-])c4)c(Oc4cccc5[nH]ccc45)c3)CC2)=C(c2ccc(Cl)cc2)C1 [EXAMPLE 292, 4-(4-{[2-(4-chlorophenyl)-4,4-dimethylcyclohex-1-en-1-yl]methyl}piperazin-1-yl)-2-(1H-indol-4-yloxy)-N-[(3-nitro-4-{[2-(trifluoromethoxy)ethyl]amino}phenyl)sulfonyl]benzamide] | >1104.2
3 | CC(c1ccccc1-c1ccc(Cl)cc1)N1CCN(c2ccc(C(=O)NS(=O)(=O)c3ccc(NCCCN4CCOCC4)c([N+](=O)[O-])c3)c(Oc3cccc4[nH]ccc34)c2)CC1 (stereo not drawn) [EXAMPLE 247, 4-{4-[1-(4′-chloro-1,1′-biphenyl-2-yl)ethyl]piperazin-1-yl}-2-(1H-indol-4-yloxy)-N-({4-[(3-morpholin-4-ylpropyl)amino]-3-nitrophenyl}sulfonyl)benzamide] | 145.3
4 | CC1(C)CCC(CN2CCN(c3ccc(C(=O)NS(=O)(=O)c4ccc(NCC56CC7CC(C5)C(O)[C@H](C7)C6)c([N+](=O)[O-])c4)c(Oc4ccc5[nH]ccc5c4)c3)CC2)=C(c2ccc(Cl)cc2)C1 (stereo partly drawn) [EXAMPLE 321, 4-(4-{[2-(4-chlorophenyl)-4,4-dimethylcyclohex-1-en-1-yl]methyl}piperazin-1-yl)-N-{[4-({[(3R)-4-hydroxy-1-adamantyl]methyl}amino)-3-nitrophenyl]sulfonyl}-2-(1H-indol-5-yloxy)benzamide] | >957.9
5 | CC1(C)CCC(CN2CCN(c3ccc(C(=O)NS(=O)(=O)c4ccc(NC5CCN(CCO)CC5)c([N+](=O)[O-])c4)c(Oc4cccc5[nH]ccc45)c3)CC2)=C(c2ccc(Cl)cc2)C1 [EXAMPLE 191, 4-(4-{[2-(4-chlorophenyl)-4,4-dimethylcyclohex-1-en-1-yl]methyl}piperazin-1-yl)-N-[(4-{[1-(2-hydroxyethyl)piperidin-4-yl]amino}-3-nitrophenyl)sulfonyl]-2-(1H-indol-4-yloxy)benzamide] | 125.2
6 | CC1(C)CCC(CN2CCN(c3ccc(C(=O)NS(=O)(=O)c4cnc(OCC5(F)CCOCC5)c(Cl)c4)c(Oc4cccc5[nH]cnc45)c3)CC2)=C(c2ccc(Cl)cc2)C1 [EXAMPLE 443, 2-(1H-benzimidazol-4-yloxy)-N-({5-chloro-6-[(4-fluorotetrahydro-2H-pyran-4-yl)methoxy]pyridin-3-yl}sulfonyl)-4-(4-{[2-(4-chlorophenyl)-4,4-dimethylcyclohex-1-en-1-yl]methyl}piperazin-1-yl)benzamide] | 1935.7
7 | O=C(NS(=O)(=O)c1ccc(NCCc2ccncc2)c([N+](=O)[O-])c1)c1ccc(N2CCN(Cc3ccccc3-c3ccc(Cl)cc3)CC2)cc1Oc1ccccc1 [Example 169, 4-{4-[(4′-chloro-1,1′-biphenyl-2-yl)methyl]piperazin-1-yl}-N-({3-nitro-4-[(2-pyridin-4-ylethyl)amino]phenyl}sulfonyl)-2-phenoxybenzamide] | 91.4
8 | Cn1cncc1CNc1ccc(S(=O)(=O)NC(=O)c2ccc(N3CCN(CC4=C(c5ccc(Cl)cc5)CC(C)(C)CC4)CC3)cc2Oc2ccc3[nH]ccc3c2)cc1[N+](=O)[O-] [EXAMPLE 360, 4-(4-{[2-(4-chlorophenyl)-4,4-dimethylcyclohex-1-en-1-yl]methyl}piperazin-1-yl)-2-(1H-indol-5-yloxy)-N-[(4-{[(1-methyl-1H-imidazol-5-yl)methyl]amino}-3-nitrophenyl)sulfonyl]benzamide] | 633.9
9 | COCCNc1ccc(S(=O)(=O)NC(=O)c2ccc(N3CCN(CC4=C(c5ccc(Cl)cc5)CC(C)(C)CC4)CC3)cc2Oc2ccc3[nH]ccc3c2)cc1S(=O)(=O)C(F)(F)F [EXAMPLE 315, 4-(4-{[2-(4-chlorophenyl)-4,4-dimethylcyclohex-1-en-1-yl]methyl}piperazin-1-yl)-2-(1H-indol-5-yloxy)-N-({4-[(2-methoxyethyl)amino]-3-[(trifluoromethyl)sulfonyl]phenyl}sulfonyl)benzamide] | >190.7
10 | CC(c1ccccc1-c1ccc(Cl)cc1)N1CCN(c2ccc(C(=O)NS(=O)(=O)c3ccc(NCC4CCOCC4)c([N+](=O)[O-])c3)c(Oc3ccc4[nH]ccc4c3)c2)CC1 (stereo not drawn) [EXAMPLE 252, 4-{4-[1-(4′-chloro-1,1′-biphenyl-2-yl)ethyl]piperazin-1-yl}-2-(1H-indol-5-yloxy)-N-({3-nitro-4-[(tetrahydro-2H-pyran-4-ylmethyl)amino]phenyl}sulfonyl)benzamide] | >8570.3
11 | CC(C)C[C@@H](CO)Nc1ccc(S(=O)(=O)NC(=O)c2ccc(N3CCN(CC4=C(c5ccc(Cl)cc5)CC(C)(C)CC4)CC3)cc2Oc2ccc3[nH]ccc3c2)cc1[N+](=O)[O-] [EXAMPLE 369, 4-(4-{[2-(4-chlorophenyl)-4,4-dimethylcyclohex-1-en-1-yl]methyl}piperazin-1-yl)-N-[(4-{[(1S)-1-(hydroxymethyl)-3-methylbutyl]amino}-3-nitrophenyl)sulfonyl]-2-(1H-indol-5-yloxy)benzamide] | >0.8
12 | CC1(C)CCC(CN2CCN(c3ccc(C(=O)NS(=O)(=O)c4cnc(OCC5CCOCC5)c(Cl)c4)c(Oc4cccc5[nH]ncc45)c3)CC2)=C(c2ccc(Cl)cc2)C1 [EXAMPLE 427, 4-(4-{[2-(4-chlorophenyl)-4,4-dimethylcyclohex-1-en-1-yl]methyl}piperazin-1-yl)-N-{[5-chloro-6-(tetrahydro-2H-pyran-4-ylmethoxy)pyridin-3-yl]sulfonyl}-2-(1H-indazol-4-yloxy)benzamide] | 34408.55031
13 | CC1(C)CCC(CN2CCN(c3ccc(C(=O)NS(=O)(=O)c4ccc(NC5CCN(CCCC(F)(F)F)CC5)c([N+](=O)[O-])c4)c(Oc4cccc5[nH]ccc45)c3)CC2)=C(c2ccc(Cl)cc2)C1 [EXAMPLE 210, 4-(4-{[2-(4-chlorophenyl)-4,4-dimethylcyclohex-1-en-1-yl]methyl}piperazin-1-yl)-2-(1H-indol-4-yloxy)-N-[(3-nitro-4-{[1-(4,4,4-trifluorobutyl)piperidin-4-yl]amino}phenyl)sulfonyl]benzamide] | >1057.6
14 | CC1(C)CCC(CN2CCN(c3ccc(C(=O)NS(=O)(=O)c4ccc(NCC5CCCCC5)c([N+](=O)[O-])c4)c(Oc4ccc5[nH]ccc5c4)c3)CC2)=C(c2ccc(Cl)cc2)C1 [EXAMPLE 259, 4-(4-{[2-(4-chlorophenyl)-4,4-dimethylcyclohex-1-en-1-yl]methyl}piperazin-1-yl)-N-({4-[(cyclohexylmethyl)amino]-3-nitrophenyl}sulfonyl)-2-(1H-indol-5-yloxy)benzamide] | >330.9
15 | CC1(C)CCC(CN2CCN(c3ccc(C(=O)NS(=O)(=O)c4ccc(NCC5CCOCC5)c(C(F)(F)F)c4)c(Oc4ccc5[nH]ccc5c4)c3)CC2)=C(c2ccc(Cl)cc2)C1 [EXAMPLE 277, 4-(4-{[2-(4-chlorophenyl)-4,4-dimethylcyclohex-1-en-1-yl]methyl}piperazin-1-yl)-2-(1H-indol-5-yloxy)-N-{[4-[(tetrahydro-2H-pyran-4-ylmethyl)amino]-3-(trifluoromethyl)phenyl]sulfonyl}benzamide] | >22.2
16 | CC(C)[C@H](CO)Nc1ccc(S(=O)(=O)NC(=O)c2ccc(N3CCN(CC4=C(c5ccc(Cl)cc5)CC(C)(C)CC4)CC3)cc2Oc2ccc3[nH]ccc3c2)cc1[N+](=O)[O-] [EXAMPLE 371, 4-(4-{[2-(4-chlorophenyl)-4,4-dimethylcyclohex-1-en-1-yl]methyl}piperazin-1-yl)-N-[(4-{[(1R)-1-(hydroxymethyl)-2-methylpropyl]amino}-3-nitrophenyl)sulfonyl]-2-(1H-indol-5-yloxy)benzamide] | >78.8
17 | CC1(C)CCC(CN2CCN(c3ccc(C(=O)NS(=O)(=O)c4ccc(NC5CCN(CCCC(F)(F)F)CC5)c([N+](=O)[O-])c4)c(Oc4ccc5[nH]ccc5c4)c3)CC2)=C(c2ccc(Cl)cc2)C1 [EXAMPLE 216, 4-(4-{[2-(4-chlorophenyl)-4,4-dimethylcyclohex-1-en-1-yl]methyl}piperazin-1-yl)-2-(1H-indol-5-yloxy)-N-[(3-nitro-4-{[1-(4,4,4-trifluorobutyl)piperidin-4-yl]amino}phenyl)sulfonyl]benzamide] | >1073.2
18 | CN(C)CC(=O)N1CCO[C@H](COc2ncc(S(=O)(=O)NC(=O)c3ccc(N4CCN(CC5=C(c6ccc(Cl)cc6)CC(C)(C)CC5)CC4)cc3Oc3cccc4[nH]cnc34)cc2Cl)C1 [EXAMPLE 423, 2-(1H-benzimidazol-4-yloxy)-N-[(5-chloro-6-{[(2S)-4-(N,N-dimethylglycyl)morpholin-2-yl]methoxy}pyridin-3-yl)sulfonyl]-4-(4-{[2-(4-chlorophenyl)-4,4-dimethylcyclohex-1-en-1-yl]methyl}piperazin-1-yl)benzamide] | 756.62
